Series [1] in a line: Molar enthalpy of transition or fusion. The conditions noted are these: Crystal; DSC.
For series [2] the following is noted: Crystal; DSC.

Numbers after ± are expanded uncertainties.

For the molecule `CC[C@@H](C(N)=O)N1CCCC1=O` [(S)-2-(2-oxopyrrolidin-1-yl)butanamide], the “Molar enthalpy of transition or fusion” value in series [1] worked out at 7.07 ± 0.239 kcal/mol. In addition, the Triple point temperature in series [2] is 389.85 ± 1.2 K.

Values taken from the NIST ThermoML archive (doi:10.1021/acs.jced.8b00720).
